Laboratory results reported in PubChem BioAssay AID2060615 (Molecular Pharmacology Branch, DTP, NCI, 2025).
Several values for one entry are separate records, joined by “and”; a condition that tells them apart may be missing. Equal entries are not always repeated.

Tested on: 496974-208-R-J2-PDC complex spheroids, growth % test/control
Test: Anticancer human tumor 496974-208-R-J2-PDC patient-derived pancreatic carcinoma cell line growth inhibition [CLK]
Conditions: for viability, T/C: stronger effect = lower value
In short: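 Patient-derived tumor cells grown as complex spheroids with HUVEC endothelial cells and mesenchymal stem cells, treated with drug combinations. Concentrations descend in half-log steps from near clinical Cmax, or from 10 microM if Cmax unknown.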

[1] = curve of first compound, second compound 0.0316 µM
[2] = curve of first compound, second compound 0.1 µM
[3] = curve of first compound, second compound 0.316 µM
[4] = curve of first compound, second compound 1 µM
[5] = curve of first compound, second compound 3.16 µM
[6] = curve of first compound, second compound 10 µM
[7] = second compound 0.0316 µM, first compound 0.0316 µM
[8] = second compound 0.0316 µM, first compound 0.1 µM
[9] = second compound 0.0316 µM, first compound 0.316 µM
[10] = second compound 0.0316 µM, first compound 1 µM
[11] = second compound 0.0316 µM, first compound 3.16 µM
[12] = second compound 0.0316 µM, first compound 10 µM
[13] = second compound 0.1 µM, first compound 0.0316 µM
[14] = second compound 0.1 µM, first compound 0.1 µM
[15] = second compound 0.1 µM, first compound 0.316 µM
[16] = second compound 0.1 µM, first compound 1 µM
[17] = second compound 0.1 µM, first compound 3.16 µM
[18] = second compound 0.1 µM, first compound 10 µM
[19] = second compound 0.316 µM, first compound 0.0316 µM
[20] = second compound 0.316 µM, first compound 0.1 µM
[21] = second compound 0.316 µM, first compound 0.316 µM
[22] = second compound 0.316 µM, first compound 1 µM
[23] = second compound 0.316 µM, first compound 3.16 µM
[24] = second compound 0.316 µM, first compound 10 µM
[25] = second compound 1 µM, first compound 0.0316 µM
[26] = second compound 1 µM, first compound 0.1 µM
[27] = second compound 1 µM, first compound 0.316 µM
[28] = second compound 1 µM, first compound 1 µM
[29] = second compound 1 µM, first compound 3.16 µM
[30] = second compound 1 µM, first compound 10 µM
[31] = second compound 3.16 µM, first compound 0.0316 µM
[32] = second compound 3.16 µM, first compound 0.1 µM
[33] = second compound 3.16 µM, first compound 0.316 µM
[34] = second compound 3.16 µM, first compound 1 µM
[35] = second compound 3.16 µM, first compound 3.16 µM
[36] = second compound 3.16 µM, first compound 10 µM
[37] = second compound 10 µM, first compound 0.0316 µM
[38] = second compound 10 µM, first compound 0.1 µM
[39] = second compound 10 µM, first compound 0.316 µM
[40] = second compound 10 µM, first compound 1 µM
[41] = second compound 10 µM, first compound 3.16 µM
[42] = second compound 10 µM, first compound 10 µM
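Also: spheroids exposed to the drugs for 7 days before readout.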
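For viability, T/C in this document: 100% = DMSO vehicle control wells.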

`C=CC(=O)N1CCN(c2nc(=O)n(-c3c(C)ccnc3C(C)C)c3nc(-c4c(O)cccc4F)c(F)cc23)C(C)C1` (stereo not drawn) + CN1CCN(c2cc(C(=O)Nc3cc4cc(-c5cnn(C)c5)ccc4cn3)ccn2)CC1 gave an IC50 [1] greater than 10 µM, an IC50 [2] greater than 10 µM and an IC50 [3] of less than 0.0316 µM. For the same compound, the IC50 [4] was less than 0.0316 µM, the IC50 [5] was less than 0.0316 µM and the IC50 [6] was less than 0.0316 µM. The viability, T/C [7] was 102%, the viability, T/C [8] was 114% and the viability, T/C [9] was 104%. The viability, T/C [10] was 120%, the viability, T/C [11] was 128% and the viability, T/C [12] was 99.9%. The viability, T/C [13] was 90.2%, the viability, T/C [14] was 89.7% and the viability, T/C [15] was 89.2%. It also gave a viability, T/C [16] of 104%, a viability, T/C [17] of 101% and a viability, T/C [18] of 78.4%. The viability, T/C [19] was 8.25%, the viability, T/C [20] was 9.83% and the viability, T/C [21] was 8.72%. It also gave a viability, T/C [22] of 10.3%, a viability, T/C [23] of 7.48% and a viability, T/C [24] of 5.87%. For the same compound, the viability, T/C [25] was 0.39%, the viability, T/C [26] was 0.6% and the viability, T/C [27] was 1.15%. The viability, T/C [28] was 0.78%, the viability, T/C [29] was 1% and the viability, T/C [30] was 3.71%. It also gave a viability, T/C [31] of 0.44%, a viability, T/C [32] of 1.82% and a viability, T/C [33] of 0.7%. The viability, T/C [34] was 0.75%, the viability, T/C [35] was 0.83% and the viability, T/C [36] was 2.13%. For the same compound, the viability, T/C [37] was 0.31%, the viability, T/C [38] was 0.35% and the viability, T/C [39] was 0.36%. For the same compound, the viability, T/C [40] was 0.46%, the viability, T/C [41] was 2.05% and the viability, T/C [42] was 0.94%.
In the case of `CC1COCCN1c1cc(C2(S(C)(=N)=O)CC2)nc(-c2ccnc3[nH]ccc23)n1` (stereo not drawn), the viability, T/C (compound 0.0316 µM) is reported as 119% and 107%, the viability, T/C (compound 0.1 µM) is reported as 105% and 97.9% and the viability, T/C (compound 0.316 µM) is reported as 85.5% and 91%. The viability, T/C (compound 1 µM) was 94.4% and 89.3%, the viability, T/C (compound 3.16 µM) was 57.5% and 62% and the viability, T/C (compound 10 µM) was 36% and 44.6%. The IC50 (curve of compound) was 5.36 µM and 7.19 µM.
`C=C(F)C(=O)N1CCN(c2nc(OCC3CCCN3C)nc3c2CCN(c2cccc4cccc(Cl)c24)C3)CC1CC#N` (stereo not drawn) was tested, and the viability, T/C (compound 0.0316 µM) was 111% and 105%, the viability, T/C (compound 0.1 µM) was 108% and 95.4% and the viability, T/C (compound 0.316 µM) was 97% and 89.5%. For the same compound, the viability, T/C (compound 1 µM) was 95.8% and 87.1%, the viability, T/C (compound 3.16 µM) was 93.5% and 98.2% and the viability, T/C (compound 10 µM) was 2.37% and 3.13%. The IC50 (curve of compound) was 5.48 µM and 5.56 µM.
`CC(CO)NC(=O)c1cc(-c2ccc(Cl)cc2)nn(-c2cnn(C)c2)c1=O` (stereo not drawn) + CN1CCN(c2cc(C(=O)Nc3cc4cc(-c5cnn(C)c5)ccc4cn3)ccn2)CC1 gave an IC50 [1] greater than 10 µM, an IC50 [2] greater than 10 µM and an IC50 [3] of less than 0.0316 µM. For the same compound, the IC50 [4] was less than 0.0316 µM, the IC50 [5] was less than 0.0316 µM and the IC50 [6] was less than 0.0316 µM. The viability, T/C [7] was 100%, the viability, T/C [8] was 103% and the viability, T/C [9] was 104%. For the same compound, the viability, T/C [10] was 97.6%, the viability, T/C [11] was 79.8% and the viability, T/C [12] was 53.3%. It also gave a viability, T/C [13] of 80.9%, a viability, T/C [14] of 90.1% and a viability, T/C [15] of 73.7%. It also gave a viability, T/C [16] of 80%, a viability, T/C [17] of 71.3% and a viability, T/C [18] of 55%. It also gave a viability, T/C [19] of 6.47%, a viability, T/C [20] of 7.73% and a viability, T/C [21] of 7.09%. The viability, T/C [22] was 6.92%, the viability, T/C [23] was 7.31% and the viability, T/C [24] was 10.6%. For the same compound, the viability, T/C [25] was 0.48%, the viability, T/C [26] was 0.63% and the viability, T/C [27] was 0.82%. The viability, T/C [28] was 0.41%, the viability, T/C [29] was 0.57% and the viability, T/C [30] was 3.08%. It also gave a viability, T/C [31] of 0.49%, a viability, T/C [32] of 0.49% and a viability, T/C [33] of 0.55%. It also gave a viability, T/C [34] of 0.4%, a viability, T/C [35] of 1% and a viability, T/C [36] of 0.92%. It also gave a viability, T/C [37] of 0.3%, a viability, T/C [38] of 0.27% and a viability, T/C [39] of 1.54%. The viability, T/C [40] was 0.29%, the viability, T/C [41] was 0.35% and the viability, T/C [42] was 1.18%.
